Key:
HBV [1] = assay: In vitro antiviral IC50 compared with Lamifudine in the same human liver cell line; format: cell-based; conditions: human liver cell line as the host
Source text: The potency difference is significant.

HDV = assay: Inhibition of HDV infection/replication in HuS-E/2 cells (HDV RNA by real-time PCR); conditions: for HDV RNA levels reduced to (percentage of non-drug-treated control): HuS-E/2 cells, 18 h infection + 48 h; for IC50: Hepatitis delta virus, HuS-E/2, read-out: IC50 (HDV RNA); for HDV replication (in words): HuS-E/2 human hepatocytes
Method: HDV genome was measured by RT-PCR and expressed as the percentage of the value for the non-drug-treated controls (NT). Control PCRs were performed for endogenous GAPDH mRNA as the loading control. […] The results are the mean±SD for three independent experiments.
HuS-E/2 cells that retain primary hepatocyte characteristics after prolonged culture were utilized for HDV infection. For HDV infection, HuS-E/2 cells were differentiated with 1% DMSO for 5-7 days, and HDV virus particles were added to infect and replicate in HuS-E/2 cells (MOI=10) as described by Huang et al. (J Virol. 2012 September; 86(17):9443-53. Epub 2012 Jun. 27) The HuS-E/2 cells are useful to assay infectivity of HDV, and screening of anti-HDV agents.
The compounds were added to the medium at the indicated concentration during infection with HDV for 18 h, then the infected cells were incubated in medium containing the compounds for further 48 h. Real-time PCR was performed to detect HDV RNA as an efficiency index of HDV infection.
Total DNA was extracted with a Genomic DNA isolation kit (Nexttec Biotechnologie, Germany). Total RNA was isolated from cultured cells using TRIzol® reagent (Invitrogen). Reverse transcription was performed with the RNA templates, AMV reverse transcriptase (Roche), and oligo-dT primer. The products were subjected to real-time PCR with primer sets of specific genes and SYBR Green PCR Master Mix (Bio-Rad). The primer sets used for HBV DNA and HDV RNA were as described by Huang et al. (J Virol. 2012 September; 86(17):9443-53. Epub 2012 Jun. 27) The results were analyzed with the iCycler iQ real-time PCR detection system (Bio-Rad).
The infected cells were then washed and incubated in medium containing the tested compounds for further 48 h, and real-time PCR was used to detect HDV mRNA as an efficiency index of HDV infection.

[2] = Cell viability MTT assay in Vero E6 cells; format: cell-based; conditions: African green monkey
Method: (§1) HepG2.2.15 and HuS-E/2 cells were seeded at 1×10^4 cells/well in a 96-well plate for 20 h, then the cells were treated with the tested compounds at various concentration (0-500 μM) for 48 h. After the treatment, cell viability was examined using MTT [3-(4,5-dimethylthiazol-2-yl)-2,5-diphenyl tetrazolium bromide] assay (Sigma Chemical Co.). Briefly, a final concentration of 0.5 mg/ml MTT was added to each well and the samples were incubated for 1 h at 37° C., and then the supernatant was aspirated. The MTT-formazan crystals formed by metabolically viable cells were dissolved in 70 μl of DMSO, and the absorbance at 550 nm was measured on a microplate reader.
(§2) The compounds used were SH-001, SH-002, and SH-003. Before testing their potential antiviral effect on HBV and HDV infection, we first examined their toxicity on VeroE6 cells, HepG2.2.15 cells and HuS-E/2 immortalized human primary hepatocytes cells at concentration from 0 to 320 μM as indicated.

HBV [3] = assay: Inhibition of HBV replication in HepG2.2.15 cells (HBsAg and HBeAg by ELISA, HBV DNA by real-time PCR); format: cell-based, Hepatitis B virus (ayw subtype); conditions: 48 h; for HBeAg levels reduced to (percentage of non-drug-treated control) / HBsAg levels reduced to (percentage of non-drug-treated control) / amount of HBV DNA in culture medium: 10 μM; for HBeAg levels reduced to (percentage of non-drug-treated control) / HBsAg levels reduced to (percentage of non-drug-treated control): culture medium; for HBeAg levels reduced to (percentage of non-drug-treated control) / HBsAg levels reduced to (percentage of non-drug-treated control) / levels of HBeAg in the culture supernatant (in words) / levels of HBsAg in the culture supernatant (in words) / IC50: ELISA; for amount of HBV DNA in culture medium: untreated cells 3.43*10^5 copies/ml; for levels of HBeAg in the culture supernatant (in words) / levels of HBsAg in the culture supernatant (in words) / HBV DNA (in words) / IC50: HepG2.2.15 cells; for HBV DNA (in words): Q-PCR, dose-dependent; for IC50: Hepatitis B virus, estimated
Source text: Plasmid p1.3HBcl, which contains a 1.3-fold HBV genome (ayw subtype), was used as standard in parallel PCR reactions. The results are expressed as a percentage of the non-drug-treated positive control (NT) and are shown as mean±SD for three independent experiments.
Continuous HBV proliferation can be achieved in HepG2.2.15 cells (RRID:CVCL_L855) stably transfected with the HBV genome of the ayw subtype. HepG2.2.15 cells were maintained in Dulbecco's modified Eagle medium (DMEM; Invitrogen) supplemented with 10% heat-inactivated fetal bovine serum (FBS; Thermo) plus 100 units of penicillin and 100 μg of streptomycin per ml (both from Invitrogen).
The viruses were then collected from the supernatant. Q-PCR was used to detect HBV DNA as an index of efficiency of HBV replication. Next, the HBV HBsAg and HBeAg were examined by ELISA assay.
The culture medium from compound-treated HepG2.2.15 cells was clarified by centrifugation at 1,000×g at 4° C. for 10 min, and then the supernatant was layered on top of a 20% sucrose cushion (20% sucrose, 20 mM HEPES, pH 7.4, 0.1% bovine serum albumin [BSA]) and centrifuged at 197,000×g for 3 h at 4° C. to pellet the HBV particles. The particles were then concentrated 100 fold to detect HBV DNA.
Q-PCR was performed to detect HBV DNA as an efficiency index of HBV replication. Moreover, the HBV HBsAg and HBeAg were examined by ELISA assay.

[4] = Cell viability MTT assay in HepG2.2.15 cells; format: cell-based; conditions: human, 0-320 μM
Method: as §1, §2

[5] = Cell viability MTT assay in HuS-E/2 cells; format: cell-based; conditions: human
Method: as §1, §2

Row | SMILES | IC50 (HDV) | HDV replication (in words) (HDV) | IC50 (HBV [1]; Hepatitis B virus) | HBeAg levels reduced to (percentage of non-drug-treated control) (HBV [3]) | HBsAg levels reduced to (percentage of non-drug-treated control) (HBV [3]) | amount of HBV DNA in culture medium (HBV [3]) | levels of HBeAg in the culture supernatant (in words) (HBV [3]) | levels of HBsAg in the culture supernatant (in words) (HBV [3]) | HBV DNA (in words) (HBV [3]) | IC50 (HBV [3]; read-out: IC50 (HBeAg)) | IC50 (HBV [3]; read-out: IC50 (HBsAg)) | CC50 at 48 h [4] | CC50 at 48 h [2] | other results
1 | Nc1ccn([C@@H]2CS[C@H](CO)O2)c(=O)n1 [Lamifudine, reference compound] | – | – | – | – | – | – | – | – | – | – | – | – | – | IC50 (HBV [1]): 358 nM
2 | O=C(O)c1ccc2c(c1)nc(Nc1cccc(Cl)c1)c1ccncc12 [SH-001, Silmitasertib] | ~146 nM | significantly inhibited | ≥ 5 nM | 53.66±3.02% | 39.85±1.78% | 5.51*10^4 copies/ml | significantly decreased | significantly decreased | repressed | 12 µM | 6.63 µM | > 195 µM | – | HDV RNA levels reduced to (percentage of non-drug-treated control) (HDV; 2.5 μM): 28.8±22.8%; HDV RNA levels reduced to (percentage of non-drug-treated control) (HDV; 5 μM): 8.7±1.3%; CC50 at 48 h ([2]; VeroE6 cells, 48 h, MTT, 0-320 μM, read-out: CC50): > 205 µM; CC50 at 48 h ([5]; HuS-E/2 cells, 48 h, MTT, 0-320 μM, read-out: CC50): > 195 µM
3 | O=C1NC(=O)/C(=C/c2cnn3c(NC4CC4)cc(Nc4cc(Cl)ccc4F)nc23)N1 [SH-002] | ~69 nM | significantly inhibited | ≥ 5 nM | 61.18±6.43% | 52.01±3.05% | 3.13*10^4 copies/ml | significantly decreased | significantly decreased | repressed | 168 µM | 11.8 µM | > 164 µM | > 61.3 µM | HDV RNA levels reduced to (percentage of non-drug-treated control) (HDV; 0.1 μM): 53.1±16.8%; HDV RNA levels reduced to (percentage of non-drug-treated control) (HDV; 0.2 μM): 40.8±18.6%; CC50 at 48 h [5]: > 164 µM
4 | CC(N)C(=O)OCN1C(=O)N/C(=C\c2cnn3c(NC4CC4)cc(Nc4cc(Cl)ccc4F)nc23)C1=O (stereo not shown) [SH-003] | – | – | – | – | – | – | – | – | – | – | – | – | > 205 µM | –
